Source: BigSolDB 2.1

O=C(O)CC(O)C(=O)O (stereo unspecified)
solubility (mole fraction)
Conditions	298.15 K	303.15 K	308.15 K	313.15 K	318.15 K	323.15 K	328.15 K	333.15 K
in ethanol	0.109	0.12	0.136	0.148	0.165	0.184	0.207	0.227
in water	0.15	0.161	0.178	0.196	0.213	0.229	0.249	0.271
